Here are results for 1 compound from PMC9154759 (2022).

Molecules are shown by their SMILES.

In the experiment the test system is aptamer 1 (DNA, aptamer) GGGAGCTCAGAATAAACGCTCAATACTATCGCGGAGACAGCGCGGGAGGCACCGGGGAGATCCGGGCCTCATGTCGAA
Kind of experiment: berberine fluorescence enhancement (ex 365 nm, em 530 nm). The note with it: 37 °C, 30 min; 50 μg/mL berberine, 0-280 nM aptamer, plateau at 200 nM; binding buffer not stated.

On to `COc1ccc2cc3[n+](cc2c1OC)CCc1cc2c(cc1-3)OCO2`, for which the binding result was “yes”.
